From paper PMC4585798 (Scientific Reports, 2015)
Positions of bridges follow the written chain, without caps; N, C: chain ends. Residues, ends and D or L forms follow the SMILES beside them.

How the values were obtained:
Experiment in all cases: cell-based
hα9α10[L7H] nAChR = hα9α10[L7H] nAChR (Homo sapiens, UniProt Q9GZZ6+Q9UGM1, L31H); assay type: cell-based
hα9α10 nAChR = hα9α10 nAChR (Homo sapiens, UniProt Q9GZZ6+Q9UGM1)
hα9rα10 nAChR = hα9rα10 nAChR (UniProt Q9JLB5+Q9UGM1); design: species or system human α9 and rat α10
Sequence of hα9rα10 nAChR (Q9UGM1 26-479 limits assumed): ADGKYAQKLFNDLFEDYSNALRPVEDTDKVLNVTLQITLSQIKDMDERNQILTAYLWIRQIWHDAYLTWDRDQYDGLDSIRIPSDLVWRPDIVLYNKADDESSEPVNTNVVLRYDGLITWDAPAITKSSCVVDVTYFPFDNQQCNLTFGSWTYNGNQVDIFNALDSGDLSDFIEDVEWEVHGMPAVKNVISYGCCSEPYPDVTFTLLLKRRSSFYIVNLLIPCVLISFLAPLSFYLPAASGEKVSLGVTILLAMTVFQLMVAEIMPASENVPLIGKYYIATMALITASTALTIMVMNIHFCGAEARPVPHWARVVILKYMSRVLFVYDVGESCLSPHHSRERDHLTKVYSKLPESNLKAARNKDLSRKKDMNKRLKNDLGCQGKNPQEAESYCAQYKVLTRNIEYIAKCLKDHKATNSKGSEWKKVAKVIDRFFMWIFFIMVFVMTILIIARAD
Sequence of hα9rα10 nAChR (Q9JLB5 25-447 limits assumed): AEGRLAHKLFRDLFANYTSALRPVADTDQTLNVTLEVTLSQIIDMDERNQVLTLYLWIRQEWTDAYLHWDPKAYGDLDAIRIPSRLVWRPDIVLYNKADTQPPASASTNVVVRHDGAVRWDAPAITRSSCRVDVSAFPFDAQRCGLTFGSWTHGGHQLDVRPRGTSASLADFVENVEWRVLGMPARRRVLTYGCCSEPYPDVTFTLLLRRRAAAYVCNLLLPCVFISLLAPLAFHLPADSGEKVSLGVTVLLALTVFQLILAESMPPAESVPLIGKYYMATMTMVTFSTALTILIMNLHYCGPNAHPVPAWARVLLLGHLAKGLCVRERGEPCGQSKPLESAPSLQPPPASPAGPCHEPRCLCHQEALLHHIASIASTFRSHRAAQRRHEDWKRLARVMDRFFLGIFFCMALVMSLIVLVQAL

rα9α10 nAChR = rα9α10 nAChR (Rattus norvegicus, UniProt P43144+Q9JLB5)
Sequence of rα9α10 nAChR (P43144 26-479 limits assumed): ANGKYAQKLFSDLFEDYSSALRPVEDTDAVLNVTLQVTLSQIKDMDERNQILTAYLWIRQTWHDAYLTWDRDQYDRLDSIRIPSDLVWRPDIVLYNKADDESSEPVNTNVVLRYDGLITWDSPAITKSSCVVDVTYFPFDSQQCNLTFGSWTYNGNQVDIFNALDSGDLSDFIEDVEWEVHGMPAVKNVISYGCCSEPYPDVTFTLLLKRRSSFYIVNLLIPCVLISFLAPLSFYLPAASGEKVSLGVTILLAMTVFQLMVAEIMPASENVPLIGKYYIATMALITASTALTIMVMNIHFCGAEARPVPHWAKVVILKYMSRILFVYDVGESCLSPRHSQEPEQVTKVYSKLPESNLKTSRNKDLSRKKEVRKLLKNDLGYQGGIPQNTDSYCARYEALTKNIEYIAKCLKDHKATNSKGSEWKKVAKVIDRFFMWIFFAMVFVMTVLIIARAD
Sequence of rα9α10 nAChR (Q9JLB5 25-447 limits assumed): as the sequence (Q9JLB5 25-447 limits assumed) above

Sequence of hα9α10[L7H] nAChR (Q9UGM1 26-479 limits assumed, stated change not applied): as the sequence (Q9UGM1 26-479 limits assumed) above
Sequence of hα9α10[L7H] nAChR (Q9GZZ6 25-450 L31H limits assumed, stated change not applied): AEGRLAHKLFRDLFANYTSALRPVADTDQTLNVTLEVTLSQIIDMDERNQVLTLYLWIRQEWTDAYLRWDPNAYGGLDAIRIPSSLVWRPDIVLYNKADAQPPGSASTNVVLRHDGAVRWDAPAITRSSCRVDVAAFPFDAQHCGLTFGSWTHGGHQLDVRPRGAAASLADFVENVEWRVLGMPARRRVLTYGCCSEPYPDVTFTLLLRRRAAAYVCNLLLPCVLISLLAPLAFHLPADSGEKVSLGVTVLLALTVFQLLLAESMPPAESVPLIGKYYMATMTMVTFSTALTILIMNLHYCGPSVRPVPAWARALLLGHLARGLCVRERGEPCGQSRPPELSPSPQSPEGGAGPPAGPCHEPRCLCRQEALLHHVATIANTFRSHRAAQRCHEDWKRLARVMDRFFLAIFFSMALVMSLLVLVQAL
Sequence of hα9α10 nAChR (Q9UGM1 26-479 limits assumed): as the sequence (Q9UGM1 26-479 limits assumed) above
Sequence of hα9α10 nAChR (Q9GZZ6 25-450 limits assumed): as the sequence (Q9GZZ6 25-450 L31H limits assumed, stated change not applied) above, with H7L counted along it

## CSCC[C@H](NC(=O)[C@@H](NC(=O)[C@@H]1CSSC[C@@H]2NC(=O)[C@H](CC(=O)O)NC(=O)[C@H](C)NC(=O)[C@H](CCCNC(=N)N)NC(=O)[C@H](C)NC(=O)[C@@H]3CSSC[C@H](NC(=O)CNC(=O)[C@H](Cc4c[nH]cn4)NC(=O)CNC(=O)[C@H](CCCNC(=N)N)NC(=O)[C@H](Cc4c[nH]c5ccccc45)NC(=O)[C@H]([C@@H](C)O)NC(=O)[C@H](Cc4c[nH]cn4)NC(=O)[C@H](Cc4ccc(O)cc4)NC(=O)[C@H](C(C)C)NC(=O)[C@H](CSSC[C@H](NC(=O)[C@H](CC(C)C)NC(=O)[C@H](CCCNC(=N)N)NC(=O)[C@@H](N)[C@@H](C)O)C(=O)N[C@@H](CO)C(=O)N[C@@H]([C@@H](C)O)C(=O)N[C@@H](CCSC)C(=O)N[C@@H](CO)C(=O)N3)NC(=O)[C@H]([C@@H](C)O)NC2=O)C(=O)N[C@@H](CO)C(=O)N1)C(C)C)C(=O)O [GeXXA-CTD] (H-TRLCSTMSCARADCTCVYHTWRGHGCSCVM-OH; disulfide 4-16, 9-26, 14-28)
hα9α10[L7H] nAChR
  IC50: 183 nM
hα9α10 nAChR
  IC50: 2020 nM
hα9rα10 nAChR
  IC50: 224 nM
rα9α10 nAChR
  IC50: 198 nM
